Results: ChEMBL document CHEMBL1153210, “Synthesis, spectral analysis and in vitro microbiological evaluation of 3-(3-alkyl-2,6-diarylpiperin-4-ylidene)-2-thioxoimidazolidin-4-ones as a new class of antibacterial and antifungal agents” (2010)
Values after ≈ are worked out from the molar mass of the structure shown. Active and inactive are the calls of the source. No cut-off for these calls is given here.

Legend:
[1] = test system: Candida; assay: Antifungal activity against Candida 51 after 72 to 96 hrs by twofold serial dilution method; type: functional
[2] = test system: Aspergillus flavus; assay: Antifungal activity against Aspergillus flavus after 72 to 96 hrs by twofold serial dilution method; type: functional
[3] = test system: Candida albicans; assay: Antifungal activity against Candida albicans after 72 to 96 hrs by twofold serial dilution method; type: functional
[4] = test system: Candida; assay: Antifungal activity against Candida 6 after 72 to 96 hrs by twofold serial dilution method; type: functional
[5] = test system: Escherichia coli; assay: Antibacterial activity against Escherichia coli after 24 hrs by twofold serial dilution method; type: functional
[6] = test system: Streptococcus; assay: Antibacterial activity against beta-Hemolytic streptococcus after 24 hrs by twofold serial dilution method; type: functional
[7] = test system: Vibrio cholerae; assay: Antibacterial activity against Vibrio cholerae after 24 hrs by twofold serial dilution method; type: functional
[8] = test system: Pseudomonas aeruginosa; assay: Antibacterial activity against Pseudomonas aeruginosa after 24 hrs by twofold serial dilution method; type: functional
[9] = test system: Staphylococcus aureus; assay: Antibacterial activity against Staphylococcus aureus after 24 hrs by twofold serial dilution method; type: functional
[10] = test system: Staphylococcus aureus; assay: Antibacterial activity against Staphylococcus aureus at 200 ug/ml after 24 hrs by twofold serial dilution method; type: functional, organism-based
[11] = test system: Escherichia coli; assay: Antibacterial activity against Escherichia coli at 200 ug/ml after 24 hrs by twofold serial dilution method; type: functional, organism-based
[12] = test system: Aspergillus flavus; assay: Antifungal activity against Aspergillus flavus at 200 ug/ml after 72 to 96 hrs by twofold serial dilution method; type: functional, organism-based
[13] = test system: Candida; assay: Antifungal activity against Candida 51 at 200 ug/ml after 72 to 96 hrs by twofold serial dilution method; type: functional, organism-based

OC(Cn1cncn1)(Cn1cncn1)c1ccc(F)cc1F [FLUCONAZOLE]
MIC [1]: 25 µg/mL (≈ 81.6 µM) | MIC [2]: 50 µg/mL (≈ 163 µM) | MIC [3]: 50 µg/mL (≈ 163 µM) | MIC [4]: 25 µg/mL (≈ 81.6 µM)

O=C(O)c1cn(C2CC2)c2cc(N3CCNCC3)c(F)cc2c1=O [CIPROFLOXACIN]
MIC [5]: 25 µg/mL (≈ 75.4 µM) | MIC [6]: 50 µg/mL (≈ 151 µM) | MIC [7]: 50 µg/mL (≈ 151 µM)

CC1(C)/C(=N/N2C(=O)CNC2=S)CC(c2ccc(Cl)cc2)NC1c1ccc(Cl)cc1 (configuration not stated)
MIC [5]: 50 µg/mL (≈ 108 µM) | MIC [1]: 50 µg/mL (≈ 108 µM) | MIC [8]: 25 µg/mL (≈ 54.2 µM) | MIC [6]: 12.5 µg/mL (≈ 27.1 µM) | MIC [7]: 12.5 µg/mL (≈ 27.1 µM) | MIC [2]: 25 µg/mL (≈ 54.2 µM) | MIC [9]: 25 µg/mL (≈ 54.2 µM) | MIC [3]: 50 µg/mL (≈ 108 µM) | MIC [4]: 50 µg/mL (≈ 108 µM)

CC1/C(=N/N2C(=O)CNC2=S)CC(c2ccc(F)cc2)NC1c1ccc(F)cc1 (configuration not stated)
MIC [5]: 12.5 µg/mL (≈ 30.2 µM) | MIC [1]: 6.25 µg/mL (≈ 15.1 µM) | MIC [8]: 6.25 µg/mL (≈ 15.1 µM) | MIC [6]: 12.5 µg/mL (≈ 30.2 µM) | MIC [7]: 12.5 µg/mL (≈ 30.2 µM) | MIC [2]: 6.25 µg/mL (≈ 15.1 µM) | MIC [9]: 6.25 µg/mL (≈ 15.1 µM) | MIC [3]: 6.25 µg/mL (≈ 15.1 µM) | MIC [4]: 12.5 µg/mL (≈ 30.2 µM)

Cc1ccc(C2CC(=NN3C(=O)CNC3=S)CC(c3ccc(C)cc3)N2)cc1 (configuration not stated)
MIC [10]: inactive | MIC [5]: 200 µg/mL (≈ 510 µM) | MIC [1]: 6.25 µg/mL (≈ 15.9 µM) | MIC [8]: 25 µg/mL (≈ 63.7 µM) | MIC [6]: 100 µg/mL (≈ 255 µM) | MIC [7]: 100 µg/mL (≈ 255 µM) | MIC [2]: 6.25 µg/mL (≈ 15.9 µM) | MIC [3]: 12.5 µg/mL (≈ 31.8 µM) | MIC [4]: 6.25 µg/mL (≈ 15.9 µM)

COc1ccc(C2C/C(=N\N3C(=O)CNC3=S)C(C)(C)C(c3ccc(OC)cc3)N2)cc1 (configuration not stated)
MIC [1]: 6.25 µg/mL (≈ 13.8 µM) | MIC [8]: 50 µg/mL (≈ 110 µM) | MIC [6]: 50 µg/mL (≈ 110 µM) | MIC [7]: 50 µg/mL (≈ 110 µM) | MIC [2]: 6.25 µg/mL (≈ 13.8 µM) | MIC [11]: inactive | MIC [9]: 200 µg/mL (≈ 442 µM) | MIC [3]: 12.5 µg/mL (≈ 27.6 µM) | MIC [4]: 25 µg/mL (≈ 55.2 µM)

O=C1CNC(=S)N1N=C1CC(c2ccccc2)NC(c2ccccc2)C1 (configuration not stated)
MIC [5]: 50 µg/mL (≈ 137 µM) | MIC [1]: 100 µg/mL (≈ 274 µM) | MIC [8]: 50 µg/mL (≈ 137 µM) | MIC [6]: 50 µg/mL (≈ 137 µM) | MIC [7]: 50 µg/mL (≈ 137 µM) | MIC [2]: 12.5 µg/mL (≈ 34.3 µM) | MIC [9]: 100 µg/mL (≈ 274 µM) | MIC [3]: 12.5 µg/mL (≈ 34.3 µM) | MIC [4]: 50 µg/mL (≈ 137 µM)

CC1/C(=N/N2C(=O)CNC2=S)CC(c2ccccc2)NC1c1ccccc1 (configuration not stated)
MIC [5]: 50 µg/mL (≈ 132 µM) | MIC [1]: 50 µg/mL (≈ 132 µM) | MIC [8]: 50 µg/mL (≈ 132 µM) | MIC [6]: 100 µg/mL (≈ 264 µM) | MIC [7]: 100 µg/mL (≈ 264 µM) | MIC [2]: 50 µg/mL (≈ 132 µM) | MIC [9]: 200 µg/mL (≈ 528 µM) | MIC [3]: 50 µg/mL (≈ 132 µM) | MIC [4]: 50 µg/mL (≈ 132 µM)

Cc1ccc(C2C/C(=N\N3C(=O)CNC3=S)C(C)(C)C(c3ccc(C)cc3)N2)cc1 (configuration not stated)
MIC [5]: 50 µg/mL (≈ 119 µM) | MIC [1]: 12.5 µg/mL (≈ 29.7 µM) | MIC [8]: 100 µg/mL (≈ 238 µM) | MIC [6]: 25 µg/mL (≈ 59.4 µM) | MIC [7]: 25 µg/mL (≈ 59.4 µM) | MIC [2]: 25 µg/mL (≈ 59.4 µM) | MIC [9]: 25 µg/mL (≈ 59.4 µM) | MIC [3]: 25 µg/mL (≈ 59.4 µM) | MIC [4]: 6.25 µg/mL (≈ 14.9 µM)

CC1(C)/C(=N/N2C(=O)CNC2=S)CC(c2ccccc2)NC1c1ccccc1 (configuration not stated)
MIC [5]: 100 µg/mL (≈ 255 µM) | MIC [1]: 50 µg/mL (≈ 127 µM) | MIC [8]: 100 µg/mL (≈ 255 µM) | MIC [6]: 25 µg/mL (≈ 63.7 µM) | MIC [7]: 25 µg/mL (≈ 63.7 µM) | MIC [9]: 100 µg/mL (≈ 255 µM) | MIC [3]: 50 µg/mL (≈ 127 µM) | MIC [4]: 100 µg/mL (≈ 255 µM) | MIC [12]: inactive

COc1ccc(C2CC(=NN3C(=O)CNC3=S)CC(c3ccc(OC)cc3)N2)cc1 (configuration not stated)
MIC [5]: 50 µg/mL (≈ 118 µM) | MIC [8]: 100 µg/mL (≈ 236 µM) | MIC [6]: 100 µg/mL (≈ 236 µM) | MIC [13]: inactive | MIC [7]: 100 µg/mL (≈ 236 µM) | MIC [2]: 12.5 µg/mL (≈ 29.4 µM) | MIC [9]: 50 µg/mL (≈ 118 µM) | MIC [3]: 12.5 µg/mL (≈ 29.4 µM) | MIC [4]: 6.25 µg/mL (≈ 14.7 µM)

CC1(C)/C(=N/N2C(=O)CNC2=S)CC(c2ccc(F)cc2)NC1c1ccc(F)cc1 (configuration not stated)
MIC [5]: 6.25 µg/mL (≈ 14.6 µM) | MIC [1]: 50 µg/mL (≈ 117 µM) | MIC [8]: 6.25 µg/mL (≈ 14.6 µM) | MIC [6]: 6.25 µg/mL (≈ 14.6 µM) | MIC [7]: 6.25 µg/mL (≈ 14.6 µM) | MIC [2]: 25 µg/mL (≈ 58.3 µM) | MIC [9]: 12.5 µg/mL (≈ 29.2 µM) | MIC [3]: 50 µg/mL (≈ 117 µM) | MIC [4]: 50 µg/mL (≈ 117 µM)

O=C1CNC(=S)N1N=C1CC(c2ccc(Cl)cc2)NC(c2ccc(Cl)cc2)C1 (configuration not stated)
MIC [5]: 12.5 µg/mL (≈ 28.8 µM) | MIC [1]: 25 µg/mL (≈ 57.7 µM) | MIC [8]: 6.25 µg/mL (≈ 14.4 µM) | MIC [6]: 6.25 µg/mL (≈ 14.4 µM) | MIC [7]: 6.25 µg/mL (≈ 14.4 µM) | MIC [2]: 50 µg/mL (≈ 115 µM) | MIC [9]: 50 µg/mL (≈ 115 µM) | MIC [3]: 50 µg/mL (≈ 115 µM) | MIC [4]: 12.5 µg/mL (≈ 28.8 µM)

CC1/C(=N/N2C(=O)CNC2=S)CC(c2ccc(Cl)cc2)NC1c1ccc(Cl)cc1 (configuration not stated)
MIC [5]: 50 µg/mL (≈ 112 µM) | MIC [1]: 12.5 µg/mL (≈ 27.9 µM) | MIC [8]: 50 µg/mL (≈ 112 µM) | MIC [6]: 50 µg/mL (≈ 112 µM) | MIC [7]: 50 µg/mL (≈ 112 µM) | MIC [2]: 12.5 µg/mL (≈ 27.9 µM) | MIC [9]: 6.25 µg/mL (≈ 14 µM) | MIC [3]: 50 µg/mL (≈ 112 µM) | MIC [4]: 50 µg/mL (≈ 112 µM)

O=C1CNC(=S)N1N=C1CC(c2ccc(F)cc2)NC(c2ccc(F)cc2)C1 (configuration not stated)
MIC [5]: 12.5 µg/mL (≈ 31.2 µM) | MIC [1]: 50 µg/mL (≈ 125 µM) | MIC [8]: 6.25 µg/mL (≈ 15.6 µM) | MIC [6]: 6.25 µg/mL (≈ 15.6 µM) | MIC [7]: 6.25 µg/mL (≈ 15.6 µM) | MIC [2]: 12.5 µg/mL (≈ 31.2 µM) | MIC [9]: 50 µg/mL (≈ 125 µM) | MIC [3]: 50 µg/mL (≈ 125 µM) | MIC [4]: 50 µg/mL (≈ 125 µM)

COc1ccc(C2C/C(=N\N3C(=O)CNC3=S)C(C)C(c3ccc(OC)cc3)N2)cc1 (configuration not stated)
MIC [5]: 100 µg/mL (≈ 228 µM) | MIC [1]: 12.5 µg/mL (≈ 28.5 µM) | MIC [8]: 25 µg/mL (≈ 57 µM) | MIC [6]: 25 µg/mL (≈ 57 µM) | MIC [7]: 25 µg/mL (≈ 57 µM) | MIC [2]: 12.5 µg/mL (≈ 28.5 µM) | MIC [9]: 50 µg/mL (≈ 114 µM) | MIC [3]: 50 µg/mL (≈ 114 µM) | MIC [4]: 12.5 µg/mL (≈ 28.5 µM)

Cc1ccc(C2C/C(=N\N3C(=O)CNC3=S)C(C)C(c3ccc(C)cc3)N2)cc1 (configuration not stated)
MIC [5]: 50 µg/mL (≈ 123 µM) | MIC [1]: 12.5 µg/mL (≈ 30.7 µM) | MIC [8]: 50 µg/mL (≈ 123 µM) | MIC [6]: 50 µg/mL (≈ 123 µM) | MIC [7]: 50 µg/mL (≈ 123 µM) | MIC [2]: 12.5 µg/mL (≈ 30.7 µM) | MIC [9]: 25 µg/mL (≈ 61.5 µM) | MIC [3]: 50 µg/mL (≈ 123 µM) | MIC [4]: 6.25 µg/mL (≈ 15.4 µM)
